Results taken from patent US20260138976A1 (Hoffmann-La Roche Inc., priority 2022, published 2026).

Tests used:
primary human T-cells = assay: Proliferation assay (5 days, CellTiter-Glo, CD3-stimulated T-cells); format: cell-based; conditions: for Emax proliferation (% activation): CD3 condition, normalised to DMSO (neutral) and 20 μM reference compound A1 = 100%; for EC50: Homo sapiens, T-cell, 120 h, CD3-stimulated primary human T-cells, 5 days, CellTiter-Glo, fitted sigmoidal curve, read-out: Tcell Proliferation CD3 EC50
How it was run: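 Proliferation read-out: ATP luminescence (CellTiter-Glo 2.0) at day 5 in expanded primary human T-cells on CD3 antibody-coated plates, with PBS-only plates as a counter screen. Compounds in 5–6 pt series (factor 3.333, top 20 or 10 μM final). Values are normalized to DMSO (neutral) and 20 μM reference A1 (100%), from sigmoidal fits.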

MV-3 cells = assay: T-cell - TCB - MV3 killing assay; format: cell-based, human; conditions: for Emax: Homo sapiens, MV-3, 120 h, % TCL normalized: MCSP-TCB only = neutral control, 20 μM reference compound A1 = 100%, read-out: MSCP TCB killing MV-3 cells 5 d Emax (%); for EC50: primary human T-cells + MV-3 RFP cells, MCSP-TCB 1.5 pM-5 pM, 120 hours imaging, read-out: MSCP TCB killing MV-3 cells 5 d EC50
Experimental: All culturing steps are executed at 5% CO2, 37° C. and 95% humidity. MV-3 RFP cells are cultured in MV-3 medium (DMEM+10% FBS, 1× PenStrep and 0.5 μg/mL Puromycin) for at least 3 weeks. Cultured MV-3 cells at 80% confluency are washed once with PBS−− and trypsinized until detached. […] Cells are seeded with 100 μL/well into a 96-well plate (TTP, #92696), and placed for 40 minutes without moving at room temperature in order to achieve evenly distributed attachment of cells. Plates are then incubated until further use.
On the next day, expanded primary human T-cells are thawed and resuspended in T-cell medium to 4*10^6 cells/mL. For 3 hours, they are cultured in a 6-well plate with 6 mL per well at maximum. After culturing the T-cells, they are filtered through a cell strainer (Miltenyi Biotech, #130-041-407), counted again, and cell concentration is adjusted to 2*10^6 cells/mL.
MCSP-TCB or PBS are pre-diluted in T-cell medium (concentration depending on T-cell donor), 4 times more concentrated than the end-concentration. 60 μL/well of pre-dilutions are then distributed into a round bottom plate (Costar, #3799) according to plate layout. Compounds are added in a 9 pt dose response with the Tecan D300e Digital Dispenser, as well 4 times more concentrated than the end-concentration. DMSO concentration of all wells is adjusted to 0.8%, resulting in 0.2% as final concentration.
60 μL per well of T-cell suspension are added to the prepared round bottom plate and resuspended with a manual multichannel. 100 μL/well of the resuspended T-cell suspension including treatments are then transferred cautiously to the over-night cultured MV-3 cells according to plate layout. 100 μL T-cell medium only is added to the outer MV-3 wells only. Final compound DR is starting at 20 μM with a dilution factor of 3.333. Final TCB concentration is between 1.5 pM to 5 pM and was determined for each T-cell donor individually by running TCB titrations. For each donor, a TCB concentration was chosen which corresponds to 10-20% MV3 baseline cell killing in the absence of compound treatment. Positive control is the reference compound A1 which is added in a DR, as well as additional wells with only 20 μM. 20 μM of reference compound A1 represent the positive stimulator control, TCB only (DMSO wells) the neutral control.
After transfer of T-cells with treatment pre-dilutions, MV-3 cells are imaged by time-lapse microscopy using IncucyteZOOM™ (Essen BioScience, MI, USA). Imaging is performed every 3 hours for a total of 120 hours (10× objective, phase and red image channels, acquisition time 400 ms, Green/Red 4614 optical module). RFP object count per well is analysed in the IncucyteZOOM™ Software (Version 2019B Rev2) with a mask that was previously created and optimized for MV-3 cells. Raw data is exported as object count/well and values are normalized as % TCL compared to wells with MV-3 only, representing 100% growth and therefore 0% TCL.
Calculated % TCL values are analysed in Genedata Screener using Roche Normalization PCT_POS_CTRL with MCSP-TCB only set as Neutral Control and 20 μM of the reference compound A1 set as Stimulator Control/100%.
Induced TCL by compounds without TCB treatment or toxicity (observed in the PBS condition) were be flagged.

Compound | Emax proliferation (% activation) (primary human T-cells) | EC50 (primary human T-cells) | Emax (MV-3 cells) | EC50 (MV-3 cells)
C[C@@](N)(c1nnc(-c2ccc3c(c2)N(Cc2ccc(-c4noc(C(F)(F)F)n4)cc2)C(=O)[C@@H](N)CS3(=O)=O)o1)C(F)(F)F [Example 52, (3R)-3-amino-7-[5-[(1R)-1-amino-2,2,2-trifluoro-1-methyl-ethyl]-1,3,4-oxadiazol-2-yl]-1,1-dioxo-5-[[4-[5-(trifluoromethyl)-1,2,4-oxadiazol-3-yl]phenyl]methyl]-2,3-dihydro-1λ^6,5-benzothiazepin-4-one] | 126 % activation | 196 nM | 95% | 52 nM
COC(=O)N1CC2CC(c3nnc(-c4ccc5c(c4)N(Cc4ccc(-c6ccc(C(F)(F)F)cn6)cc4)C(=O)[C@@H](N)CS5(=O)=O)o3)(C2)C1 [Example 159, methyl 1-[5-[(3R)-3-amino-1,1,4-trioxo-5-[[4-[5-(trifluoromethyl)-2-pyridyl]phenyl]methyl]-2,3-dihydro-1λ^6,5-benzothiazepin-7-yl]-1,3,4-oxadiazol-2-yl]-3-azabicyclo[3.1.1]heptane-3-carboxylate] | 146 % activation | 152 nM | 102% | 166 nM
CC(C)(C#N)c1nnc(-c2ccc3c(c2)N(Cc2ccc(-c4ccc(C(F)(F)F)cn4)cc2)C(=O)[C@@H](N)CS3(=O)=O)o1 [Example 47] | 159 % activation | 459 nM | 103% | 280 nM
N[C@H]1CS(=O)(=O)c2ccc(-c3nnc(N4CCOC(F)(F)C4)o3)cc2N(Cc2ccc(-c3noc(C(F)(F)F)n3)cc2)C1=O [Example 78, (3R)-3-amino-7-[5-(2,2-difluoromorpholin-4-yl)-1,3,4-oxadiazol-2-yl]-1,1-dioxo-5-[[4-[5-(trifluoromethyl)-1,2,4-oxadiazol-3-yl]phenyl]methyl]-2,3-dihydro-1λ^6,5-benzothiazepin-4-one] | 150 % activation | 1090 nM | 112% | 93 nM
CC(C)(C#N)c1nnc(-c2ccc3c(c2)N(Cc2ccc(-c4ccc(OC(F)(F)F)cn4)cc2)C(=O)[C@@H](N)CS3(=O)=O)o1 [Example 124] | 153 % activation | 114 nM | 100% | 23 nM
CC(C)(C)c1nnc(-c2ccc3c(c2)N(Cc2ccc(-n4cnc(C(F)(F)F)n4)cc2)C(=O)[C@@H](N)CS3(=O)=O)o1 [Example 91, (3R)-3-amino-7-(5-tert-butyl-1,3,4-oxadiazol-2-yl)-1,1-dioxo-5-[[4-[3-(trifluoromethyl)-1,2,4-triazol-1-yl]phenyl]methyl]-2,3-dihydro-126,5-benzothiazepin-4-one] | 127 % activation | 404 nM | 96% | 237 nM
CC(C)(C#N)c1nnc(-c2ccc3c(c2)N(Cc2ccc(-n4ccc(C(F)(F)F)n4)cc2)C(=O)[C@@H](N)CS3(=O)=O)o1 [Example 121, 2-[5-[(3R)-3-amino-1,1,4-trioxo-5-[[4-[3-(trifluoromethyl)pyrazol-1-yl]phenyl]methyl]-2,3-dihydro-1λ^6,5-benzothiazepin-7-yl]-1,3,4-oxadiazol-2-yl]-2-methyl-propanenitrile] | 160 % activation | 1090 nM | 98% | 109 nM
C[C@@](N)(c1nnc(-c2ccc3c(c2)N(Cc2ccc(-n4ccc(C(F)(F)F)n4)cc2)C(=O)[C@@H](N)CS3(=O)=O)o1)C(F)(F)F [Example 157, (3R)-3-amino-7-[5-[(1R)-1-amino-2,2,2-trifluoro-1-methyl-ethyl]-1,3,4-oxadiazol-2-yl]-1,1-dioxo-5-[[4-[3-(trifluoromethyl)pyrazol-1-yl]phenyl]methyl]-2,3-dihydro-1λ^6,5-benzothiazepin-4-one] | 130 % activation | 600 nM | 100% | 119 nM
CC(C)(c1nnc(-c2ccc3c(c2)N(Cc2ccc(-c4noc(C(F)(F)F)n4)cc2)C(=O)[C@@H](N)CS3(=O)=O)o1)C(F)(F)F [Example 166] | 164 % activation | 75.9 nM | 102% | 10 nM
COc1ccc(-c2ccc(CN3C(=O)[C@@H](N)CS(=O)(=O)c4ccc(-c5nnc(N(C)CC(F)(F)F)o5)cc43)cc2)cc1 [Example 81, (3R)-3-amino-5-[[4-(4-methoxyphenyl)phenyl]methyl]-7-[5-[methyl(2,2,2-trifluoroethyl)amino]-1,3,4-oxadiazol-2-yl]-1,1-dioxo-2,3-dihydro-1λ^6,5-benzothiazepin-4-one] | 138 % activation | 728 nM | 98% | 343 nM
C[C@](N)(c1nnc(-c2ccc3c(c2)N(Cc2ccc(-c4noc(C(F)(F)F)n4)cc2)C(=O)[C@@H](N)CS3(=O)=O)o1)C(F)(F)F [Example 53, (3R)-3-amino-7-[5-[(1S)-1-amino-2,2,2-trifluoro-1-methyl-ethyl]-1,3,4-oxadiazol-2-yl]-1,1-dioxo-5-[[4-[5-(trifluoromethyl)-1,2,4-oxadiazol-3-yl]phenyl]methyl]-2,3-dihydro-1λ^6,5-benzothiazepin-4-one] | 120 % activation | 2220 nM | 98% | 137 nM
